Experimental data taken from US11384078B2, “5,6-fused-bicyclic compounds and compositions for the treatment of parasitic diseases” (NOVARTIS AG, priority 2017, dated 2022).

Columns and labels:
Assay type in all cases: cell-based
[1] = system: Trypanosoma cruzi amastigotes cultured in 3T3 fibroblast cells; experiment: Assay for growth inhibition of kinetoplastid parasite Trypanosoma cruzi (beta-galactosidase Tulahuen strain, CPRG readout); conditions: Trypanosoma cruzi, Fibroblast, T. cruzi amastigotes in 3T3 fibroblast cells; read-out: Buckner infectious T. cruzi EC50
Procedure, shortened: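 3T3 fibroblasts (1,000 cells/well) plated overnight, treated with compound in DMSO, then infected with 10,000 Lac-Z-expressing Tulahuen trypomastigotes. After 6 days, 0.6 mM CPRG with 0.6% NP-40 added for 2 h at room temperature; absorbance gives relative intracellular amastigote numbers. Benznidazole and nifurtimox serve as positive controls.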

[2] = system: Trypanosoma brucei brucei (Lister 427) strain; experiment: Assay for growth inhibition against Trypanosoma brucei brucei (Cell TiterGlo ATP luminescence); conditions: Trypanosoma brucei, T. brucei brucei (Lister 427); read-out: T. Brucei (HAT) EC50
Procedure, shortened: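 Growth read-out is cellular ATP by CellTiter-Glo luminescence, measured 30 min after reagent addition, following 2-day incubation at 37 °C in CO2. Parasites (10,000/mL, HMI-9 plus 10% FBS and 10% serum plus) faced 10 threefold dilutions in duplicate; IC50 taken as 50% growth inhibition versus untreated.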

[3] = system: L. donovani HU3 strain in mouse peritoneal macrophages; experiment: Assay for inhibition of parasitemia of Leishmania donovani in mouse macrophages (SYBR Green nuclei count, high-content imaging); conditions: Leishmania donovani, Peritoneal macrophage, L. donovani in mouse peritoneal macrophages; read-out: L. donovani in Mouse Macrophages EC50
Excerpt: Assay for Inhibition of Parasitemia of Leishmania donovani in Mouse Macrophages
The assay measures the increase in the parasite number in the assayed plate well using a DNA intercalating dye, SYBR Green I® dye (INVITROGEN) to stain Leishmania cell nuclei. L. donovani HU3 strain is propagated by infecting BALB/c mice through tail vein injection with 10^7 Leishmania parasites. Infected mice are allowed to develop infection during 9-11 weeks post-infection. During this time, the parasites accumulate in the infected mouse spleens to large numbers, and the infected mice serve as the source of parasites for the in vitro measurement of compound efficacies. To assay a compound for anti-leishmanial activity, peritoneal macrophages isolated from non-infected BALB/c mice are seeded into 384-well plates at density 2×10^4 macrophages per well in […] of medium (RPM11640, 10% fetal serum albumin, 10 mM HEPES, 1 mM sodium pyruvate, 1% Pen/Strep). Subsequently, the seeded plates are placed into an incubator set to maintain 37° C. temperature and atmosphere with 5% CO2.
The next day, Leishmania parasites are isolated from the spleens of mice infected for 9-11 weeks and 4×10^5 isolated parasites in […] of the above media are added to each plate well. Plates are then returned into incubators and infection is allowed to proceed for 24 hours. After the infection of macrophages is completed, […] of compounds of the invention in the above medium, which also contains 5% DMSO, are added to plate wells containing infected macrophages. At the same time control compounds (miltefosine and amphotericin B) and DMSO are added to plates to serve as the positive and negative controls, respectively. After the compound addition, the plates are returned into incubator and cells infected with parasites are cultured for 5 days. At the end of cultivation, […] of 8% paraformaldehyde is added to plate wells and incubated for 15 min at room temperature. Following the incubation, the paraformaldehyde from plate wells is aspirated, and […] of PBS containing 0.2% Triton X-100 is added to wells. After 15 min incubation, the solution is aspirated from wells again, and replaced with Sybr® Green Dye solution in PBS (1:125,000 dilution). Infected cells are imaged with Evotec Opera high-content microscope, and the number of parasites in well is determined by counting parasite nuclei visualized by staining with Sybr® Green dye.

[4] = system: Leishmania donovani axenic amastigote; experiment: In vitro assay for growth inhibition of Leishmania donovani axenic amastigote (Cell TiterGlo luminescence); conditions: Leishmania donovani, L. donovani axenic amastigotes in vitro; read-out: L. donovani amastigotes EC50
Procedure, shortened: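 Compound-treated wells received 9600 axenic amastigotes in RPMI 1640-based medium at pH 5.5 (37 °C, 5% CO2). Growth measured as ATP luminescence (CellTiter-Glo) after 2-day incubation; DMSO and reference compounds served as controls.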

Row | Structure (SMILES) | EC50 [1] | EC50 [2] | EC50 [3] | EC50 [4]
1 | CCC(C)(C)c1cnc2nn(-c3cc(NC(=O)N4CC(F)C4)ccc3F)cc2c1 [Compound 24, 3-fluoro-N-{4-fluoro-3-[5-(2-methylbutan-2-yl)-2H-pyrazolo[3,4-b]pyridin-2-yl]phenyl}azetidine-1-carboxamide] | 0.44 µM | 0.61 µM | 1 µM | 0.88 µM
2 | CCC(C)c1cnc2nn(-c3cc(NC(=O)N4CC(F)C4)ccc3F)cc2c1 (centres unmarked) [Compound 25, N-{3-[5-(butan-2-yl)-2H-pyrazolo[3,4-b]pyridin-2-yl]-4-fluorophenyl}-3-fluoroazetidine-1-carboxamide] | 0.017 µM | < 0.023 µM | 0.047 µM | 0.021 µM
3 | CC(C)CCc1cnc2nn(-c3cc(NC(=O)N4CC(F)C4)ccc3F)cc2c1 [Compound 27, 3-fluoro-N-{4-fluoro-3-[5-(3-methylbutyl)-2H-pyrazolo[3,4-b]pyridin-2-yl]phenyl}azetidine-1-carboxamide] | 0.038 µM | < 0.023 µM | 0.015 µM | 0.033 µM
4 | O=C(Nc1ccc(F)c(-n2cc3cc(-c4ccccn4)cnc3n2)c1)N1CC(F)C1 [Compound 28, 3-fluoro-N-{4-fluoro-3-[5-(pyridin-2-yl)-2H-pyrazolo[3,4-b]pyridin-2-yl]phenyl}azetidine-1-carboxamide] | 0.001 µM | < 0.023 µM | 0.002 µM | 0.0013 µM
5 | O=C(Nc1ccc(F)c(-n2cc3cc(C4CC4)cnc3n2)c1)N1CC(F)(F)C1 [Compound 29, N-(3-{5-cyclopropyl-2H-pyrazolo[3,4-b]pyridin-2-yl}-4-fluorophenyl)-3,3-difluoroazetidine-1-carboxamide] | 0.011 µM | < 0.023 µM | 0.0097 µM | 0.0082 µM
6 | CC(C)(C)Cc1cnc2nn(-c3cc(NC(=O)N4CC(F)(F)C4)ccc3F)cc2c1 [Compound 32, N-{3-[5-(2,2-dimethylpropyl)-2H-pyrazolo[3,4-b]pyridin-2-yl]-4-fluorophenyl}-3,3-difluoroazetidine-1-carboxamide] | 0.005 µM | < 0.023 µM | 0.013 µM | 0.012 µM
7 | CC(C)(C)c1cnc2nn(-c3cc(NC(=O)N4CC(F)(F)C4)ccc3F)cc2c1 [Compound 33, N-(3-{5-tert-butyl-2H-pyrazolo[3,4-b]pyridin-2-yl}-4-fluorophenyl)-3,3-difluoroazetidine-1-carboxamide] | 0.72 µM | 0.28 µM | 0.56 µM | 0.29 µM
8 | CCCC(C)c1cnc2nn(-c3cc(NC(=O)N4CC(F)(F)C4)ccc3F)cc2c1 (centres unmarked) [Compound 34, 3,3-difluoro-N-{4-fluoro-3-[5-(pentan-2-yl)-2H-pyrazolo[3,4-b]pyridin-2-yl]phenyl}azetidine-1-carboxamide] | 0.16 µM | 0.15 µM | 0.27 µM | 0.2 µM
9 | CCC(C)(C)c1cnc2nn(-c3cc(NC(=O)N4CC(F)(F)C4)ccc3F)cc2c1 [Compound 35, 3,3-difluoro-N-{4-fluoro-3-[5-(2-methylbutan-2-yl)-2H-pyrazolo[3,4-b]pyridin-2-yl]phenyl}azetidine-1-carboxamide] | 0.38 µM | 0.85 µM | 0.52 µM | 0.58 µM
10 | CC(C)CCc1cnc2nn(-c3cc(NC(=O)N4CC(F)(F)C4)ccc3F)cc2c1 [Compound 38, 3,3-difluoro-N-{4-fluoro-3-[5-(3-methylbutyl)-2H-pyrazolo[3,4-b]pyridin-2-yl]phenyl}azetidine-1-carboxamide] | 0.062 µM | 0.024 µM | 0.033 µM | 0.031 µM
11 | O=C(Nc1ccc(F)c(-n2cc3cc(-c4ccccn4)cnc3n2)c1)N1CC(F)(F)C1 [Compound 39, 3,3-difluoro-N-(4-fluoro-3-(5-(pyridin-2-yl)-2H-pyrazolo[3,4-b]pyridin-2-yl)phenyl)azetidine-1-carboxamide] | 0.002 µM | < 0.023 µM | 0.0038 µM | 0.0024 µM
12 | O=C(Nc1ccc(F)c(-n2cc3cc(C4CC4)cnc3n2)c1)N1CC[C@@H](F)C1 [Compound 42, (3R)-N-(3-{5-cyclopropyl-2H-pyrazolo[3,4-b]pyridin-2-yl}-4-fluorophenyl)-3-fluoropyrrolidine-1-carboxamide] | 0.0018 µM | < 0.023 µM | 0.006 µM | 0.003 µM
13 | CC(C)(C)Cc1cnc2nn(-c3cc(NC(=O)N4CC[C@@H](F)C4)ccc3F)cc2c1 [Compound 46, (3R)-N-{3-[5-(2,2-dimethylpropyl)-2H-pyrazolo[3,4-b]pyridin-2-yl]-4-fluorophenyl}-3-fluoropyrrolidine-1-carboxamide] | 0.0017 µM | < 0.023 µM | 0.0035 µM | 0.0084 µM
14 | CCCC(C)c1cnc2nn(-c3cc(NC(=O)N4CC[C@@H](F)C4)ccc3F)cc2c1 (stereo partly drawn) [Compound 48, (3R)-3-fluoro-N-{4-fluoro-3-[5-(pentan-2-yl)-2H-pyrazolo[3,4-b]pyridin-2-yl]phenyl}pyrrolidine-1-carboxamide] | 0.29 µM | 0.05 µM | 0.33 µM | 0.35 µM
15 | CCC(C)(C)c1cnc2nn(-c3cc(NC(=O)N4CC[C@@H](F)C4)ccc3F)cc2c1 [Compound 49, (3R)-3-fluoro-N-{4-fluoro-3-[5-(2-methylbutan-2-yl)-2H-pyrazolo[3,4-b]pyridin-2-yl]phenyl}pyrrolidine-1-carboxamide] | 12 µM | 3.4 µM | 12 µM | 25 µM
16 | CCC(C)c1cnc2nn(-c3cc(NC(=O)N4CC[C@@H](F)C4)ccc3F)cc2c1 (stereo partly drawn) [Compound 50, (3R)-N-{3-[5-(butan-2-yl)-2H-pyrazolo[3,4-b]pyridin-2-yl]-4-fluorophenyl}-3-fluoropyrrolidine-1-carboxamide] | 0.079 µM | < 0.023 µM | 0.1 µM | 0.078 µM
17 | CC(C)CCc1cnc2nn(-c3cc(NC(=O)N4CC[C@@H](F)C4)ccc3F)cc2c1 [Compound 52, (3R)-3-fluoro-N-{4-fluoro-3-[5-(3-methylbutyl)-2H-pyrazolo[3,4-b]pyridin-2-yl]phenyl}pyrrolidine-1-carboxamide] | 0.013 µM | < 0.023 µM | 0.011 µM | 0.019 µM
18 | O=C(Nc1ccc(F)c(-n2cc3cc(-c4ccccn4)cnc3n2)c1)N1CC[C@@H](F)C1 [Compound 53, (3R)-3-fluoro-N-{4-fluoro-3-[5-(pyridin-2-yl)-2H-pyrazolo[3,4-b]pyridin-2-yl]phenyl}pyrrolidine-1-carboxamide] | 0.001 µM | < 0.023 µM | 0.002 µM | 0.0013 µM
19 | CC(C)(C)Cc1cnc2nn(-c3cc(NC(=O)c4ccco4)ccc3F)cc2c1 [Compound 59, N-{3-[5-(2,2-dimethylpropyl)-2H-pyrazolo[3,4-b]pyridin-2-yl]-4-fluorophenyl}furan-2-carboxamide] | 0.0047 µM | < 0.023 µM | 0.021 µM | 0.068 µM
20 | CCC(C)(C)c1cnc2nn(-c3cc(NC(=O)c4ccco4)ccc3F)cc2c1 [Compound 60, N-{4-fluoro-3-[5-(2-methylbutan-2-yl)-2H-pyrazolo[3,4-b]pyridin-2-yl]phenyl}furan-2-carboxamide] | 0.44 µM | 1.3 µM | 2.4 µM | 2 µM
